# pIC50: −log10 of the molar value. Where two headings read alike, the source gives them in different places.
# Key:
# [1] = molecular target: T1, SHP2 catalytic domain (SHP2cat; residues 248–527) (Homo sapiens, UniProt Q06124); experiment: DiFMUP fluorescence phosphatase inhibition assay, SHP2cat; assay type: biochemical
# T1 construct: the SHP2 catalytic domain (SHP2cat; residues 248–527); made in house
# T1 sequence (Q06124 248-527): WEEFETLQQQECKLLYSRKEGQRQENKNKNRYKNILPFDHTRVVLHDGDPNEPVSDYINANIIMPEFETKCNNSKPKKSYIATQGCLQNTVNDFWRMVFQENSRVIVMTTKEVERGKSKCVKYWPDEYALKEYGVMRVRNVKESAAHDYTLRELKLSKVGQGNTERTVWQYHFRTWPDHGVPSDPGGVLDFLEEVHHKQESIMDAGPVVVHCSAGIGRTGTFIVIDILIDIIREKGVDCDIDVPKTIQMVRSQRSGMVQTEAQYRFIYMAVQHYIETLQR
# Excerpt: To test the synthesized compounds for their potential to inhibit SHP2 activity, a fluorescence intensity-based assay using 6,8-difluoro-4-methylumbelliferyl phosphate (DiFMUP) as the substrate was adapted for three recombinant SHP2 constructs: (1) the SHP2 catalytic domain (SHP2cat; residues 248–527), (2) the full-length SHP2-E76K oncogenic mutant, and (3) the full-length SHP2 WT (SHP2-WT). The recombinant SHP2 proteins were expressed and purified as described previously ([36]). A dually phosphorylated peptide derived from the insulin receptor substrate 1 (IRS-1) served as a surrogate binding protein and was used to activate SHP2-WT ([30], [36]). […] Michaelis–Menten experiments to determine the DiFMUP Michaelis–Menten constant (Km) for each SHP2 construct were performed as described previously ([36]) and yielded the following values: SHP2-WT, Km = 60 μM; SHP2-E76K, Km = 20 μM; and SHP2cat, Km = 20 μM. Relative maximum rates (Vmax) of the DiFMUP reactions expressed as relative fluorescence units per minute (RFU/min) were as follows: SHP2-WT, Vmax = 871 RFU/min; SHP2-E76K, Vmax = 2730 RFU/min; and SHP2cat, Vmax = 2912 RFU/min. IC50 values for each compound were determined from initial rates in 10-point dose–response assays using DiFMUP at a concentration corresponding to its Km value for the respective SHP2 construct. […] Replacements for the benzothiophenone were explored using analog #10.
# Recombinant human full-length SHP2 (1–594) WT and E76K mutants, as well as the SHP2cat (248–527), were expressed and purified as described before ([36], [41]). Recombinant human PTP1B (1–300) and the codon-optimized STEP (280–566) catalytic domains were cloned into PET-15b and expressed as N-His-tagged fusion proteins. For expression, transformed BL21(DE3) cells were grown and induced similar as described for SHP2. Collected cells were resuspended in lysis buffer (25 mM Tris, pH 7.5, 300 mM NaCl, 50 mM imidazole, and 10% glycerol) with 100 mg/l RNaseA and were lysed with two passages using a microfluidizer. The lysate was clarified by centrifugation at 15,000g for 50 min and applied to nickel–nitrilotriacetic acid resin. The column resin was washed, and the PTP1B or STEP protein was eluted in lysis buffer at 300 mM imidazole. The PTP1B or STEP protein was further purified by S75 size-exclusion chromatography in 50 mM Tris, pH 7.5, 50 mM NaCl. The eluted peak fractions were supplemented with tris(2-carboxyethyl)phosphine to 10 mM, concentrated by ultrafiltration, and stored at −80 °C. The purified yield of PTP1B was 33 mg/l cell culture; the yield of STEP was 16 mg/l cell culture.
# SHP2 inhibitors were tested at RT in a 384-well plate format standard phosphatase fluorescence intensity assay using DiFMUP (Invitrogen/Thermo Fisher Scientific) as a substrate and a total reaction volume of 25 μl. SHP2 inhibitors or vehicle (DMSO) were spotted in triplicate into a black Greiner FLUOTRAC 200 384-well microplate (catalog no.: 781076; Greiner) for a 10-point dose–response assay using an Echo 555 Liquid Handler (Labcyte, Inc). PTP working solutions were prepared at a 0.625 nM concentration (for a final concentration of 0.5 nM) in buffer containing 50 mM Bis–Tris, pH 6.0, 50 mM NaCl, 5 mM DTT, and 0.01% Tween-20. Prior to the assay, a dually phosphorylated IRS-1 peptide (625 nM [500 nM final] ([30])) was added to full-length WT SHP2 working solutions and incubated for 20 min. DiFMUP working solutions at 5× final concentration were prepared in 50 mM Bis–Tris, pH 6.0, 50 mM NaCl, and 0.01% Tween-20. About 20 μl of PTP working solution was dispensed into the microplate and incubated with inhibitor for 20 min at RT. […] The reaction was initiated by addition of 5 μl DiFMUP working solutions. Fluorescence intensity was measured in kinetic mode (every minute for 7 or 10 min) using a Tecan Spark Multimode Microplate Reader (Tecan) with an excitation wavelength of 360 nm and an emission wavelength of 460 nm. […]
# [2] = system: KYSE-520 esophageal cancer cells; experiment: Cell viability (CellTiter-Glo), KYSE-520; assay type: cell-based; conditions: for effect on KYSE-520 cell growth: various concentrations, 3 days
# Experimental: Inhibition of SHP2 has been reported to inhibit the growth of cancer cells including Kasumi-1 acute myeloid leukemia (AML) and KYSE-520 esophageal cancer cells ([30]). […] Thus, we treated two TNBC cell lines, BT-549 and MDA-MB-468, with SBI-4668 or the SHP2 allosteric inhibitor SHP099 at various concentrations and determined cell viability after 72 h, compared with the vehicle control (Fig. 4C). […] Next, we performed an 11-day colony formation assay with TNBC cells treated with SBI-4668 or SHP099 at 5, 10, or 20 μM (Fig. 4D).
# Viability of AML and esophageal carcinoma cells was assessed using the ATP-depletion assay CellTiter-Glo (Promega). Cells were harvested at 1 × 10^6/ml to 2 × 10^6 cells/ml with cell numbers determined by trypan blue using the Countess Cell counter (Thermo Scientific) and resuspended in culture media. About 3000 cells (in 20 μl) were seeded in a 384-well format white and clear-bottom microplate (catalog no.: 781098; Greiner) spotted with test compound or vehicle control (DMSO) using an Echo 555 Liquid Handler. Cells were incubated for 3 days, before 10 μl of CellTiter-Glo reagent mix was added to each well and incubated for 10 min at RT. Luminescence was read on a Tecan Spark Multimode Microplate Reader, and data were analyzed using GraphPad Prism software.
# [3] = DiFMUP at Km (20 μM), pH 6.0, read-out: SHP2cat, IC50
# [4] = catalytic domain, DiFMUP at Km, read-out: SHP2 IC50 (Table 2)
"pIC50 [1, 3]","pIC50 [1, 4]",Structure (SMILES),"pIC50 ([2]; Homo sapiens, KYSE-520, 72 h, 3 days in culture)",effect on KYSE-520 cell growth [2]
5.70,5.70,"O=C1/C(=C/c2ccc(-c3ccc(O)c(-c4nn[nH]n4)c3)o2)Sc2ccccc21 [SBI-3405, (Z)-2-((5-(4-Hydroxy-3-(2H-tetrazol-5-yl)phenyl)furan-2-yl)methylene)benzo[b]thiophen-3(2H)-one]",,
5.96,5.96,"O=C1CCCC1=Cc1ccc(-c2ccc(O)c(C(=O)Nc3ccccc3)c2)o1 [SBI-3192, 2-Hydroxy-5-(5-((2-oxocyclopentylidene)methyl)furan-2-yl)-N-phenylbenzamide]",,
6.66,6.66,"Nc1ccc(NC(=O)c2cc(-c3ccc(/C=C4\Sc5ccccc5C4=O)o3)ccc2O)cc1 [SBI-2130, (Z)-N-(4-Aminophenyl)-2-hydroxy-5-(5-((3-oxobenzo[b]thiophen-2(3H)-ylidene)methyl)furan-2-yl)benzamide]",,dose-dependently inhibited cancer cell growth
5.85,5.85,"N#Cc1cc(-c2ccc(/C=C3\Sc4ccccc4C3=O)o2)ccc1O [SBI-3404, (Z)-2-Hydroxy-5-(5-((3-oxobenzo[b]thiophen-2(3H)-ylidene)methyl)furan-2-yl)benzonitrile]",,dose-dependently inhibited cancer cell growth

Structure (SMILES),"pIC50 [1, 3]","pIC50 [1, 4]","pIC50 ([2]; Homo sapiens, KYSE-520, 72 h, 3 days in culture)",effect on KYSE-520 cell growth [2]
"O=C(Nc1ccccc1)c1cc(-c2ccc(/C=C3\Sc4ccccc4C3=O)o2)ccc1O [SBI-4668, (Z)-2-Hydroxy-5-(5-((3-oxobenzo[b]thiophen-2(3H)-ylidene)methyl)furan-2-yl)-N-phenylbenzamide]",6.14,6.14,5.27,dose-dependently inhibited cancer cell growth

# Reference: article PMC8760490, “Discovery of novel furanylbenzamide inhibitors that target oncogenic tyrosine phosphatase SHP2 in leukemia cells” (The Journal of Biological Chemistry, 2021)
